Data on 26 molecules can be found in US8853424B2 (Japan Science and Technology Agency, priority 2008, dated 2014).

Experiment [1] deals with Truncated N-terminal huntington 150 Q-EGFP-Neuron 2a cells. Kind of experiment: Measurement of x-Fold (polyglutamine aggregation inhibitory activity). It is filed as cell-based. Here is the method: In the present invention, the polyglutamine aggregation inhibitory activity (x-Fold) can be measured, for example, by the method described in the Example.
The number of the aggregated cells, and the total number of cells were counted by Array Scan V T1 (manufactured by Cellomics, Pittuburg, USA), and the ratio of the aggregated cells to the total number of cells was determined (x-Fold). […]

A further experiment deals with transglutaminase (TGase). Kind of experiment: Measurement of TG (TGase inhibitory activity, monodansyl cadaverine / N,N-dimethylcasein fluorescence, FDSS 3000). It is filed as biochemical. Here is the method:
For example, the method described in the Example can be performed.
The compound of the present invention (10 mM, 1 μL) was taken in a 96-well plate (Nunc, 96 Well Black Plate with Clear Bottom), an enzyme reaction solution (100 mM HEPES-NaOH, pH 7.5, 1 mM CaCl2, 20 μM monodansyl cadaverine, 0.05 mg/mL N,N-dimethylcasein, 5 μg/mL TGase) (0.1 ml) was added and the mixture was sufficiently mixed without making foams. The mixture was set on a fluorescence drug screening system FDSS 3000 (Hamamatsu Photonics K.K.), and changes in the fluorescence wavelength per unit time at 340 nm were measured, based on which the TGase inhibitory activity of the compound of the present invention was calculated. As a control, change in the fluorescence when 1 μL of DMSO (dimethyl sulfoxide) was added instead of the compound of the present invention was taken as 100, and TG50 was when the activity decreased to half due to the compound of the present invention.

[2] abbreviates: polyglutamine aggregation inhibitory activity, Table 1.
The mark [3] stands for this setting: ratio of aggregated cells to total number of cells, compound 20 μM, 20 hr, almost 1 without compound, smaller = stronger inhibition.
The mark [4] stands for this setting: TGase activity with compound (10 mM, 1 μL in 0.1 ml enzyme reaction solution), DMSO control taken as 100.
Setting [5] is: TGase inhibitory activity value, Table 1.

Take `NCC(OB(c1ccc(F)c(F)c1)c1ccc(F)c(F)c1)c1ccccc1` (stereo not shown) [Example 88, 2-amino-1-phenylethyl bis(3,4-difluorophenyl)borinate]: the x-Fold in experiment [1] (setting [2]) and in experiment [1] (setting [3]) was 0.83 in each case. Moreover, the “TGase activity remaining (% of DMSO control = 100)” value in the experiment on transglutaminase (TGase) (setting [4]) and in the experiment with transglutaminase (TGase) (setting [5]) was 82 throughout.
Turning to `NCCOB(c1cc(F)c(F)c(F)c1)c1cc(F)c(F)c(F)c1` [Example 89, aminoethyl bis(3,4,5-trifluorophenyl)borinate], the x-Fold in experiment [1] (setting [2]) and in experiment [1] (setting [3]) was 0.94 each time. The “TGase activity remaining (% of DMSO control = 100)” value in the experiment on transglutaminase (TGase) (setting [4]) and in the experiment on transglutaminase (TGase) (setting [5]) was 80 throughout.
For the molecule `Fc1cc(B(OCc2ccccn2)c2cc(F)c(F)c(F)c2)cc(F)c1F` [Example 90, 2-pyridylmethyl bis(3,4,5-trifluorophenyl)borinate], the x-Fold in experiment [1] (setting [2]) and in experiment [1] (setting [3]) was 0.81 throughout. The “TGase activity remaining (% of DMSO control = 100)” value in the experiment on transglutaminase (TGase) (setting [4]) and with transglutaminase (TGase) (setting [5]) was 93 throughout.
Turning to `NCCOB(c1cc(F)cc(F)c1)c1cc(F)cc(F)c1` [Example 91, aminoethyl bis(3,5-difluorophenyl)borinate], the x-Fold in experiment [1] (setting [2]) and in experiment [1] (setting [3]) was 0.99 each time. In addition, the “TGase activity remaining (% of DMSO control = 100)” value in the experiment with transglutaminase (TGase) (setting [4]) and in the experiment on transglutaminase (TGase) (setting [5]) was 107 in each case.
For `CN(C)CCOB(c1cc(F)cc(F)c1)c1cc(F)cc(F)c1` [Example 92, dimethylaminoethyl bis(3,5-difluorophenyl)borinate], the x-Fold in experiment [1] (setting [2]) and in experiment [1] (setting [3]) was 1.00 in each case. The “TGase activity remaining (% of DMSO control = 100)” value in the experiment with transglutaminase (TGase) (setting [4]) and in the experiment with transglutaminase (TGase) (setting [5]) was 106 throughout.
In the case of `NCCOB(c1ccc(Cl)c(F)c1)c1ccc(Cl)c(F)c1` [Example 93, aminoethyl bis(4-chloro-3-fluorophenyl)borinate], the x-Fold in experiment [1] (setting [2]) and in experiment [1] (setting [3]) was 0.93 throughout. The “TGase activity remaining (% of DMSO control = 100)” value in the experiment on transglutaminase (TGase) (setting [4]) is on record as 117; with transglutaminase (TGase) (TGase inhibitory activity value, Table 1, listed as 6023), 117.
For the molecule `CN(C)CCOB(c1ccc(Cl)c(F)c1)c1ccc(Cl)c(F)c1` [Example 94, dimethylaminoethyl bis(4-chloro-3-fluorophenyl)borinate], the x-Fold in experiment [1] (setting [2]) and in experiment [1] (setting [3]) was 0.95 each time. Also, the “TGase activity remaining (% of DMSO control = 100)” value with transglutaminase (TGase) (setting [4]) and in the experiment on transglutaminase (TGase) (setting [5]) was 114 throughout.
Take `NCCC(N)C(=O)OB(c1ccc(Cl)c(F)c1)c1ccc(Cl)c(F)c1` (stereo not shown) [Example 95, di(3-fluoro-4-chlorophenyl)(2,4-diaminolactonate-O,N)borane]: the x-Fold in experiment [1] (setting [2]) and in experiment [1] (setting [3]) was 0.88 each time. Besides, the “TGase activity remaining (% of DMSO control = 100)” value with transglutaminase (TGase) (setting [4]) and with transglutaminase (TGase) (setting [5]) was 114 in each case.
Take `NC(=O)CC[C@H](N)C(=O)OB(c1ccc(Cl)c(F)c1)c1ccc(Cl)c(F)c1` [Example 96, di(3-fluoro-4-chlorophenyl)(glutaminate-O,N)borane]: the x-Fold in experiment [1] (setting [2]) and in experiment [1] (setting [3]) was 0.86 in each case. The “TGase activity remaining (% of DMSO control = 100)” value in the experiment on transglutaminase (TGase) (setting [4]) and with transglutaminase (TGase) (setting [5]) was 124 throughout.
For `OB(c1cc(F)cc(Cl)c1)c1cc(F)cc(Cl)c1` [Example 97, bis(3-chloro-5-fluorophenyl)borinic acid], the x-Fold in experiment [1] (setting [2]) and in experiment [1] (setting [3]) was 0.72 throughout. Further, the “TGase activity remaining (% of DMSO control = 100)” value with transglutaminase (TGase) (setting [4]) and in the experiment on transglutaminase (TGase) (setting [5]) was 122 throughout.
Take `OB(c1cc(Cl)ccc1F)c1cc(Cl)ccc1F` [Example 98, bis(3-chloro-6-fluorophenyl)borinic acid]: the x-Fold in experiment [1] (setting [2]) and in experiment [1] (setting [3]) was 0.95 in each case. The “TGase activity remaining (% of DMSO control = 100)” value with transglutaminase (TGase) (setting [4]) and in the experiment on transglutaminase (TGase) (setting [5]) was 111 in each case.
Consider `NCCOB(c1cc(F)cc(Cl)c1)c1cc(F)cc(Cl)c1` [Example 99, aminoethyl bis(3-chloro-5-fluorophenyl)borinate], for which the x-Fold in experiment [1] (setting [2]) and in experiment [1] (setting [3]) was 0.73 each time. For the same molecule, the “TGase activity remaining (% of DMSO control = 100)” value with transglutaminase (TGase) (setting [4]) and in the experiment with transglutaminase (TGase) (setting [5]) was 109 throughout.
In the case of `NCCOB(c1cc(Cl)ccc1F)c1cc(Cl)ccc1F` [Example 100, aminoethyl bis(3-chloro-6-fluorophenyl)borinate], the x-Fold in experiment [1] (setting [2]) and in experiment [1] (setting [3]) was 0.97 each time. In addition, the “TGase activity remaining (% of DMSO control = 100)” value in the experiment with transglutaminase (TGase) (setting [4]) and in the experiment on transglutaminase (TGase) (setting [5]) was 119 throughout.
Regarding `CNCCOB(c1cc(Cl)ccc1F)c1cc(Cl)ccc1F` [Example 101, methylaminoethyl bis(3-chloro-6-fluorophenyl)borinate], the x-Fold in experiment [1] (setting [2]) and in experiment [1] (setting [3]) was 1.02 each time. Besides, the “TGase activity remaining (% of DMSO control = 100)” value with transglutaminase (TGase) (setting [4]) and with transglutaminase (TGase) (setting [5]) was 122 throughout.
`N#Cc1ccc(B(O)c2ccc(C#N)cc2)cc1` [Example 102, bis(4-cyanophenyl)borinic acid]: the x-Fold in experiment [1] (polyglutamine aggregation inhibitory activity, Table 1, listed as 5009) came to 1.10; in experiment [1] (setting [3]), 1.10. Moreover, the “TGase activity remaining (% of DMSO control = 100)” value with transglutaminase (TGase) (setting [4]) worked out at 72; with transglutaminase (TGase) (TGase inhibitory activity value, Table 1, listed as 5009), 72.
On to `N#Cc1ccc(B(OCCN)c2ccc(C#N)cc2)cc1` [Example 103, aminoethyl bis(4-cyanophenyl)borinate], for which the x-Fold in experiment [1] (setting [2]) and in experiment [1] (setting [3]) was 0.89 in each case. Moreover, the “TGase activity remaining (% of DMSO control = 100)” value in the experiment on transglutaminase (TGase) (setting [4]) and in the experiment with transglutaminase (TGase) (setting [5]) was 114 in each case.
With `N#Cc1ccc(B(OCc2ccccn2)c2ccc(C#N)cc2)cc1` [Example 104, 2-pyridylmethyl bis(4-cyanophenyl)borinate], the x-Fold in experiment [1] (setting [2]) and in experiment [1] (setting [3]) was 1.16 in each case. In addition, the “TGase activity remaining (% of DMSO control = 100)” value in the experiment with transglutaminase (TGase) (setting [4]) and with transglutaminase (TGase) (setting [5]) was 94 each time.
In the case of `N#Cc1ccc(B(OCCNCc2ccccc2)c2ccc(C#N)cc2)cc1` [Example 105, benzylaminoethyl bis(4-cyanophenyl)borinate], the x-Fold in experiment [1] (setting [2]) and in experiment [1] (setting [3]) was 1.05 throughout. For the same molecule, the “TGase activity remaining (% of DMSO control = 100)” value in the experiment with transglutaminase (TGase) (setting [4]) and with transglutaminase (TGase) (setting [5]) was 92 each time.
For `N#Cc1ccc(B(SCCN)c2ccc(C#N)cc2)cc1` [Example 106, 2-aminoethylthio bis(4-cyanophenyl)borane], the x-Fold in experiment [1] (setting [2]) and in experiment [1] (setting [3]) was 0.92 in each case. Moreover, the “TGase activity remaining (% of DMSO control = 100)” value in the experiment on transglutaminase (TGase) (setting [4]) and in the experiment with transglutaminase (TGase) (setting [5]) was 23 throughout.
As to `CCC(C)B(O)c1ccccc1` (stereo not shown) [Example 107, secondary-butyl phenyl borinic acid], the x-Fold in experiment [1] (setting [2]) and in experiment [1] (setting [3]) was 0.98 in each case. Besides, the “TGase activity remaining (% of DMSO control = 100)” value in the experiment on transglutaminase (TGase) (setting [4]) and with transglutaminase (TGase) (setting [5]) was 111 each time.
For `CCCCB(O)c1ccccc1` [Example 108, normal-butyl phenyl borinic acid], the x-Fold in experiment [1] (setting [2]) and in experiment [1] (setting [3]) was 1.00 in each case. The “TGase activity remaining (% of DMSO control = 100)” value with transglutaminase (TGase) (setting [4]) and in the experiment with transglutaminase (TGase) (setting [5]) was 111 each time.
In the case of `CC(C)(C)B(OCCN)c1ccccc1` [Example 111, aminoethyl tertiary-butyl phenylborinate], the x-Fold in experiment [1] (setting [2]) and in experiment [1] (setting [3]) was 1.02 each time. Also, the “TGase activity remaining (% of DMSO control = 100)” value in the experiment with transglutaminase (TGase) (setting [4]) and in the experiment on transglutaminase (TGase) (setting [5]) was 121 in each case.
As for `CCCCB(OCCN)c1ccccc1` [Example 112, aminoethyl normal-butyl phenylborinate], the x-Fold in experiment [1] (setting [2]) and in experiment [1] (setting [3]) was 0.99 each time. In addition, the “TGase activity remaining (% of DMSO control = 100)” value with transglutaminase (TGase) (setting [4]) and with transglutaminase (TGase) (setting [5]) was 123 throughout.
Consider `OB(CCCCB(O)c1ccccc1)c1ccccc1` [Example 113, 1,4-bis(hydroxyphenylboryl)butane], for which the x-Fold in experiment [1] (setting [2]) and in experiment [1] (setting [3]) was 0.99 throughout. In addition, the “TGase activity remaining (% of DMSO control = 100)” value in the experiment with transglutaminase (TGase) (setting [4]) and in the experiment on transglutaminase (TGase) (setting [5]) was 112 each time.
On to `OB(c1ccc(Cl)cc1)c1ccc(Cl)cc1` [Example 115, bis(4-chlorophenyl)borinic acid], for which the x-Fold in experiment [1] (setting [3]) is given as 1.07. The “TGase activity remaining (% of DMSO control = 100)” value in the experiment on transglutaminase (TGase) (setting [4]) stood at 101.
The corresponding values for `Cc1ccc(B(OCCN2CCN(CCOB(c3ccc(C)c(Cl)c3)c3ccc(C)c(Cl)c3)CC2)c2ccc(C)c(Cl)c2)cc1Cl` [Example 116, bis(di(3-chloro-4-methylphenyl)boryloxyethyl)piperazine] are 1.02 and 108.
